The values that follow come from PubChem BioAssay AID1745844 (Carcinogenic Potency Database (CPDB), 2022).

Active and inactive are the calls of the source. The rule behind the calls is not given here.

In the data set the test system is rodent lifetime carcinogenesis bioassay, tumor incidence TD50. As to the kind of experiment: carcinogenic potency in animals, long-term in vivo studies, CPDB compilation (AID 1745844).

`CN=[N+](C)[O-]`: the TD50 (rat, strain Fischer 344, males, by gavage, site: Zymbal's gland, lesion: carcinoma, dosed 30 weeks, study length 65 weeks) was 0.204 mg/kg/day; the TD50 (rat, strain Fischer 344, males, by gavage, site: colon, lesion: malignant tumor, dosed 30 weeks, study length 65 weeks) worked out at 0.171 mg/kg/day; the TD50 (rat, strain Fischer 344, males, by gavage, site: colon, lesion: one or several types, types not named, dosed 30 weeks, study length 65 weeks) is 0.102 mg/kg/day; the TD50 (rat, strain Fischer 344, males, by gavage, site: kidney, lesion: mesenchymal neoplasm, dosed 30 weeks, study length 65 weeks) was 0.3 mg/kg/day; the TD50 (rat, strain Fischer 344, males, in drinking water, site: colon, lesion: several types, types named in the paper, dosed 30 weeks, study length 100 weeks) is 0.585 mg/kg/day; the TD50 (rat, strain Fischer 344, males, in drinking water, site: kidney, lesion: several types, types named in the paper, dosed 30 weeks, study length 100 weeks) is 0.388 mg/kg/day. Further, the TD50 (rat, strain Fischer 344, males, in drinking water, site: liver, lesion: hemangiosarcoma, dosed 30 weeks, study length 100 weeks) was 0.982 mg/kg/day; the TD50 (rat, strain Fischer 344, males, in drinking water, site: liver, lesion: hepatocellular carcinoma, dosed 30 weeks, study length 100 weeks) is 0.0677 mg/kg/day; the TD50 (rat, strain Fischer 344, males, in drinking water, site: liver, lesion: neoplastic nodule, dosed 30 weeks, study length 100 weeks) is 28.6 mg/kg/day; the TD50 (rat, strain Fischer 344, males, in drinking water, site: liver, lesion: several types, types named in the paper, dosed 30 weeks, study length 100 weeks) was 0.0302 mg/kg/day. In addition, where the note is “rat, strain Fischer 344, males, by gavage, site: liver, lesion: one or several types, types not named, dosed 30 weeks, study length 65 weeks”, the carcinogen call was “negative (inactive)”.
Consider `S=C=NCCCc1ccccc1`, for which, where the note is “rat, strain Fischer 344, males, in feed, site: testis, lesion: interstitial-cell tumor, dosed 89 weeks, study length 89 weeks”, the TD50 amounted to 4.34 mg/kg/day.
With `CC(=O)Oc1ccccc1C(=O)O`, the carcinogen call reads like this: (mouse, strain C57BL/6, females, in feed, site: liver, lesion: one or several types, types not named, dosed 77 weeks, study length 77 weeks) “negative (inactive)”; (mouse, strain C57BL/6, males, in feed, site: liver, lesion: one or several types, types not named, dosed 77 weeks, study length 77 weeks) “negative (inactive)”; (rat, strain Fischer 344, males, in feed, site: colon, lesion: one or several types, types not named, dosed 56 weeks, study length 56 weeks) “negative (inactive)”; (rat, strain Wistar, males, in feed, site: liver, lesion: one or several types, types not named, dosed 52 weeks, study length 52 weeks) “negative (inactive)”; (rat, strain albino, both sexes, by gavage, site: forestomach, lesion: one or several types, types not named, dosed 78 weeks, study length 78 weeks) “negative (inactive)”; (rat, strain albino, both sexes, by gavage, site: stomach, glandular, lesion: one or several types, types not named, dosed 78 weeks, study length 78 weeks) “negative (inactive)”. Under “rat, strain Fischer 344, males, in feed, site: urinary bladder, lesion: papilloma, dosed 68 weeks, study length 68 weeks”, the TD50 was determined as 1670 mg/kg/day.
Take `O=c1cc(CO)occ1O`: the TD50 was 20900 mg/kg/day (mouse, strain B6C3F1, females, in feed, site: liver, lesion: hepatocellular adenoma, dosed 84 weeks, study length 88 weeks); 2610 mg/kg/day (mouse, strain B6C3F1, females, in feed, site: thyroid gland, lesion: follicular-cell adenoma, dosed 84 weeks, study length 88 weeks); 19700 mg/kg/day (mouse, strain B6C3F1, males, in feed, site: liver, lesion: hepatocellular adenoma, dosed 84 weeks, study length 88 weeks); 323 mg/kg/day (mouse, strain B6C3F1, males, in feed, site: thyroid gland, lesion: follicular-cell adenoma, dosed 52 weeks, study length 52 weeks); 927 mg/kg/day (mouse, strain B6C3F1, males, in feed, site: thyroid gland, lesion: follicular-cell adenoma, dosed 84 weeks, study length 88 weeks).
`CC(=O)O[C@]1(C(C)=O)CC[C@H]2[C@@H]3C=C(Cl)C4=CC(=O)CC[C@]4(C)[C@H]3CC[C@@]21C`: under “mouse, strain C3H (MTV+), females, in feed, site: mammary tissue, wider than the gland, lesion: one or several types, types not named, dosed 104 weeks, study length 104 weeks”, the TD50 came to 3.77 mg/kg/day.
Turning to `CCCN(N)C=O`, the TD50 was 497 mg/kg/day (mouse, strain Swiss albino, females, in drinking water, site: gall bladder, lesion: adenoma, dosed 75 weeks, study length 79 weeks); 444 mg/kg/day (mouse, strain Swiss albino, females, in drinking water, site: gall bladder, lesion: several types, types named in the paper, dosed 75 weeks, study length 79 weeks); 215 mg/kg/day (mouse, strain Swiss albino, females, in drinking water, site: liver, lesion: several types, types named in the paper, dosed 75 weeks, study length 79 weeks); 8.74 mg/kg/day (mouse, strain Swiss albino, females, in drinking water, site: lung, lesion: several types, types named in the paper, dosed 75 weeks, study length 79 weeks); 8.84 mg/kg/day (mouse, strain Swiss albino, males, in drinking water, site: lung, lesion: several types, types named in the paper, dosed 51 weeks, study length 61 weeks); 60.4 mg/kg/day (mouse, strain Swiss albino, males, in drinking water, site: preputial gland, lesion: several types, types named in the paper, dosed 51 weeks, study length 61 weeks). Also, the TD50 (mouse, strain Swiss albino, males, in drinking water, site: preputial gland, lesion: squamous-cell carcinoma, dosed 51 weeks, study length 61 weeks) was 75.7 mg/kg/day.
Turning to `CC(=O)Nc1cccc2c1Cc1ccccc1-2`, the TD50 is, setting by setting: (rat, strain Buffalo, females, in feed, site: adrenal gland, lesion: carcinoma, dosed 47 weeks, study length 88 weeks) 54.8 mg/kg/day; (rat, strain Buffalo, females, in feed, site: all sites, lesion: leukemia, indeterminate type, dosed 47 weeks, study length 88 weeks) 54.8 mg/kg/day; (rat, strain Buffalo, females, in feed, site: ovary, lesion: granulosa-cell carcinoma, dosed 47 weeks, study length 88 weeks) 54.8 mg/kg/day; (rat, strain Buffalo, females, in feed, site: pituitary gland, lesion: adenoma, dosed 47 weeks, study length 88 weeks) 43.5 mg/kg/day; (rat, strain Buffalo, females, in feed, site: uterus, lesion: carcinosarcoma, dosed 47 weeks, study length 88 weeks) 54.8 mg/kg/day.
With `Nc1cc(S(=O)(=O)[O-])cc2cc(S(=O)(=O)[O-])c(N=Nc3ccc(-c4ccc(N=Nc5c(S(=O)(=O)[O-])cc6cc(S(=O)(=O)[O-])cc(N)c6c5O)c(O)c4)cc3O)c(O)c12.[Cu].[Cu].[Na+].[Na+].[Na+].[Na+]`, the TD50 by setting is: (mouse, strain B6C3F1, females, in feed, site: any site (literature study), lesion: several types, types named in the paper, dosed 103 weeks, study length 106 weeks) 1530 mg/kg/day; (mouse, strain B6C3F1, females, in feed, site: liver, lesion: hepatoblastoma + hepatocellular carcinoma, dosed 103 weeks, study length 106 weeks) 4000 mg/kg/day; (mouse, strain B6C3F1, females, in feed, site: liver, lesion: hepatocellular adenoma + hepatoblastoma + hepatocellular carcinoma, dosed 103 weeks, study length 106 weeks) 711 mg/kg/day; (mouse, strain B6C3F1, females, in feed, site: liver, lesion: hepatocellular adenoma + hepatocellular carcinoma, dosed 103 weeks, study length 106 weeks) 711 mg/kg/day; (mouse, strain B6C3F1, females, in feed, site: liver, lesion: hepatocellular adenoma, dosed 103 weeks, study length 106 weeks) 774 mg/kg/day; (mouse, strain B6C3F1, females, in feed, site: liver, lesion: hepatocellular carcinoma, dosed 103 weeks, study length 106 weeks) 4570 mg/kg/day. Also, the TD50 is 1910 mg/kg/day (mouse, strain B6C3F1, males, in feed, site: any site (literature study), lesion: several types, types named in the paper, dosed 103 weeks, study length 105 weeks); 20300 mg/kg/day (mouse, strain B6C3F1, males, in feed, site: jejunum, lesion: carcinoma, dosed 103 weeks, study length 105 weeks); 195000 mg/kg/day (mouse, strain B6C3F1, males, in feed, site: kidney, lesion: tubule adenoma, dosed 103 weeks, study length 105 weeks); 1080 mg/kg/day (mouse, strain B6C3F1, males, in feed, site: liver, lesion: hepatocellular adenoma + hepatoblastoma + hepatocellular carcinoma, dosed 103 weeks, study length 105 weeks); 1080 mg/kg/day (mouse, strain B6C3F1, males, in feed, site: liver, lesion: hepatocellular adenoma + hepatocellular carcinoma, dosed 103 weeks, study length 105 weeks); 1210 mg/kg/day (mouse, strain B6C3F1, males, in feed, site: liver, lesion: hepatocellular adenoma, dosed 103 weeks, study length 105 weeks). The TD50 (mouse, strain B6C3F1, males, in feed, site: liver, lesion: hepatocellular carcinoma, dosed 103 weeks, study length 105 weeks) is 2990 mg/kg/day; the TD50 (rat, strain Fischer 344, females, in feed, site: any site (literature study), lesion: several types, types named in the paper, dosed 103 weeks, study length 104 weeks) was determined as 653 mg/kg/day; the TD50 (rat, strain Fischer 344, females, in feed, site: uterus, lesion: endometrial stromal polyp, dosed 103 weeks, study length 104 weeks) was 83.5 mg/kg/day (inactive); the TD50 (rat, strain Fischer 344, males, in feed, site: any site (literature study), lesion: several types, types named in the paper, dosed 103 weeks, study length 104 weeks) is 921 mg/kg/day; the TD50 (rat, strain Fischer 344, males, in feed, site: forestomach, lesion: squamous-cell carcinoma + squamous-cell papilloma, dosed 103 weeks, study length 104 weeks) turned out to be 2350 mg/kg/day; the TD50 (rat, strain Fischer 344, males, in feed, site: forestomach, lesion: squamous-cell papilloma, dosed 103 weeks, study length 104 weeks) is 3140 mg/kg/day. For the same compound, the TD50 is 5050 mg/kg/day (rat, strain Fischer 344, males, in feed, site: liver, lesion: hepatocellular adenoma + hepatoblastoma + hepatocellular carcinoma, dosed 103 weeks, study length 104 weeks); 1380 mg/kg/day (rat, strain Fischer 344, males, in feed, site: palate, lesion: basosquamous tumor, benign + squamous-cell carcinoma + squamous-cell papilloma, dosed 103 weeks, study length 104 weeks); 11500 mg/kg/day (rat, strain Fischer 344, males, in feed, site: palate, lesion: basosquamous tumor, benign, dosed 103 weeks, study length 104 weeks); 1570 mg/kg/day (rat, strain Fischer 344, males, in feed, site: palate, lesion: squamous-cell carcinoma + squamous-cell papilloma, dosed 103 weeks, study length 104 weeks); 9510 mg/kg/day (rat, strain Fischer 344, males, in feed, site: palate, lesion: squamous-cell carcinoma, dosed 103 weeks, study length 104 weeks); 1920 mg/kg/day (rat, strain Fischer 344, males, in feed, site: palate, lesion: squamous-cell papilloma, dosed 103 weeks, study length 104 weeks). In addition, the carcinogen call runs as follows: (mouse, strain B6C3F1, males, in feed, site: kidney, lesion: tubule adenoma + tubule carcinoma, dosed 103 weeks, study length 105 weeks) “e”; (mouse, strain B6C3F1, males, in feed, site: kidney, lesion: tubule carcinoma, dosed 103 weeks, study length 105 weeks) “e”; (rat, strain Fischer 344, males, in feed, site: forestomach, lesion: squamous-cell carcinoma, dosed 103 weeks, study length 104 weeks) “e”.
Regarding `NC(=S)NNS(=O)(=O)c1ccccc1`, the TD50 stood at 46.6 mg/kg/day (mouse, strain Swiss, females, by gavage, site: liver, lesion: liver-cell tumor, dosed 50 weeks, study length 60 weeks) and 46.6 mg/kg/day (mouse, strain Swiss, females, by gavage, site: lung, lesion: one or several types, types not named, dosed 50 weeks, study length 60 weeks).

As a reminder, the TD50 is the 50% point of the dose-response relation for the toxic effect studied.
